Counter-ions that a name gives are not always drawn.

For this assay, the target named is BRAF^V600E protein (Homo sapiens, UniProt P15056, V600E). Put plainly: HiBiT cellular BRAF V600E degradation assay. Format: cell-based. Particulars: 24 h incubation; for DC50: A375.10 cells (HiBiT tag knocked in at N-terminal of BRAF V600E), concentration at which 50% of total cellular BRAF V600E is degraded; for Emax: read-out: HiBit 24 h Emax.
[1] abbreviates: A375.10 cells, Emax = amount of residual protein remaining in the cell after compound treatment.

BRAF^V600E protein, sequence (P15056 whole entry V600E): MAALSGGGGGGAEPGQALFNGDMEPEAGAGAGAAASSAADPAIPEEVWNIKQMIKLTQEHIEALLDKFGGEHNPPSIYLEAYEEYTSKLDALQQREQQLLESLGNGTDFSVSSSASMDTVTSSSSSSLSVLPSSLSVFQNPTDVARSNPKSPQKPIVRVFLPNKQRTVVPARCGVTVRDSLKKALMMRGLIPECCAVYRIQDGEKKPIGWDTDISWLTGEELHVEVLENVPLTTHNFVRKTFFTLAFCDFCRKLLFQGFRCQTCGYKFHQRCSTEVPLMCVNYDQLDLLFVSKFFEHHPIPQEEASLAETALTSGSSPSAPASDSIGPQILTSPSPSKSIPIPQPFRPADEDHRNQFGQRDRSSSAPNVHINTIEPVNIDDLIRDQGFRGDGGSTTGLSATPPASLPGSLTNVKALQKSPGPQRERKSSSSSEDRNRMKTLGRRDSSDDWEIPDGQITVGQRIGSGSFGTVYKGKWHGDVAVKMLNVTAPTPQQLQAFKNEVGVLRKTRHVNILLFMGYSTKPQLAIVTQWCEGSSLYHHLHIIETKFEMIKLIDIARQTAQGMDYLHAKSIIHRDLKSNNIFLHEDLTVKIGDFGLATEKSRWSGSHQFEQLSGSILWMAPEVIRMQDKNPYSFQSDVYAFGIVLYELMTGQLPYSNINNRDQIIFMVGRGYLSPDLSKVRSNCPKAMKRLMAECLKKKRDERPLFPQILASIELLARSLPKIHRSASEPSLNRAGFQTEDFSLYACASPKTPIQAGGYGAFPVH

Compound `CCN(C)S(=O)(=O)Nc1ccc(F)c(C(=O)c2c[nH]c3ncc(-c4cnc(N5CCN(C(=O)CN6CCC(c7ccc(N8CCC(=O)NC8=O)cc7)CC6)CC5)nc4)cc23)c1F` [Example 24, 5-[2-[4-[2-[4-[4-(2,4-dioxohexahydropyrimidin-1-yl)phenyl]-1-piperidyl]acetyl]piperazin-1-yl]pyrimidin-5-yl]-3-[3-[[ethyl(methyl)sulfamoyl]amino]-2,6-difluoro-benzoyl]-1H-pyrrolo[2,3-b]pyridine] came in with a half-maximal degradation concentration (DC50) of 5.59 nM. Besides, under setting [1], the “HiBit 24 h Emax” value amounted to 7.88%.

For the compound `CCN(C)S(=O)(=O)Nc1ccc(F)c(C(=O)c2c[nH]c3ncc(-c4ccc(N5CCN(C(=O)CC6(O)CCN(c7ncc(NC8CCC(=O)NC8=O)cc7F)CC6)CC5)nc4)cc23)c1F` (stereo not shown) [Example 80, 5-[6-[4-[2-[1-[5-[(2,6-dioxo-3-piperidyl)amino]-3-fluoro-2-pyridyl]-4-hydroxy-4-piperidyl]acetyl]piperazin-1-yl]-3-pyridyl]-3-[3-[[ethyl(methyl)sulfamoyl]amino]-2,6-difluoro-benzoyl]-1H-pyrrolo[2,3-b]pyridine], half-maximal degradation (DC50) was put at 2.97 nM. Moreover, the Emax under setting [1] came to 9.93%.

`CCN(C)S(=O)(=O)Nc1ccc(F)c(C(=O)c2c[nH]c3ncc(-c4ccc(N5CCN(C(=O)CC6(O)CCN(c7ccc(N8CCC(=O)NC8=O)cc7F)CC6)CC5)cc4)cc23)c1F` [Example 169, 5-[4-[4-[2-[1-[4-(2,4-dioxohexahydropyrimidin-1-yl)-2-fluoro-phenyl]-4-hydroxy-4-piperidyl]acetyl]piperazin-1-yl]phenyl]-3-[3-[[ethyl(methyl)sulfamoyl]amino]-2,6-difluoro-benzoyl]-1H-pyrrolo[2,3-b]pyridine] yielded a half-maximal degradation concentration (DC50) of 2.82 nM. Under setting [1], the maximal response (Emax) turned out to be 7.34%.

The compound `CCN(C)S(=O)(=O)Nc1ccc(F)c(C(=O)c2c[nH]c3ncc(-c4cnc(N5CCN(C(=O)CC6(O)CCN(c7ccc(NC8CCC(=O)NC8=O)cc7F)CC6)CC5)c(S(C)(=O)=O)c4)cc23)c1F` (stereo not shown) [Example 211, 5-[6-[4-[2-[1-[4-[(2,6-dioxo-3-piperidyl)amino]-2-fluoro-phenyl]-4-hydroxy-4-piperidyl]acetyl]piperazin-1-yl]-5-methylsulfonyl-3-pyridyl]-3-[3-[[ethyl(methyl)sulfamoyl]amino]-2,6-difluoro-benzoyl]-1H-pyrrolo[2,3-b]pyridine] had a 50% degradation concentration (DC50) of 11.3 nM. For the same compound, the maximum response (Emax) under setting [1] is 9.3%.

In turn, `CCN(C)S(=O)(=O)Nc1cccc(C(=O)c2c[nH]c3ncc(-c4ccc(N5CCN(C(=O)CN6CCC(c7ccc(OC8CCC(=O)NC8=O)cc7)CC6)CC5)nc4)cc23)c1F` (stereo not shown) [Example 108, 5-[6-[4-[2-[4-[4-[(2,6-dioxo-3-piperidyl)oxy]phenyl]-1-piperidyl]acetyl]piperazin-1-yl]-3-pyridyl]-3-[3-[[ethyl(methyl)sulfamoyl]amino]-2-fluoro-benzoyl]-1H-pyrrolo[2,3-b]pyridine] showed a DC50 of 5.6 nM. Besides, the Emax under setting [1] was 11.4%.

In turn, `O=C1CCC(c2ccc(C3CCN(CC(=O)N4CCN(c5ccc(-c6cnc7[nH]cc(C(=O)c8c(F)ccc(NS(=O)(=O)N9CCCC9)c8F)c7c6)cc5)CC4)CC3)cc2)C(=O)N1` (stereo not shown) [Example A85, N-[3-[5-[4-[4-[2-[4-[4-(2,6-Dioxopiperidin-3-yl)phenyl]piperidin-1-yl]acetyl]piperazin-1-yl]phenyl]-1H-pyrrolo[2,3-b]pyridine-3-carbonyl]-2,4-difluorophenyl]pyrrolidine-1-sulfonamide] had a half-maximal degradation concentration (DC50) of 16 nM. Besides, under setting [1], the maximal effect (Emax) came out at 11%.

Take `O=C1CCC(Oc2ccc(C3CCN(CC(=O)N4CCN(c5ccc(-c6cnc7[nH]cc(C(=O)c8c(F)ccc(NS(=O)(=O)C9CCCCC9)c8F)c7c6)cn5)CC4)CC3)cc2)C(=O)N1` (stereo not shown) [Example A32, N-[3-[5-[6-[4-[2-[4-[4-(2,6-Dioxopiperidin-3-yl)oxyphenyl]piperidin-1-yl]acetyl]piperazin-1-yl]pyridin-3-yl]-1H-pyrrolo[2,3-b]pyridine-3-carbonyl]-2,4-difluorophenyl]cyclohexanesulfonamide]: the DC50 was found to be 39 nM. Moreover, the maximum response (Emax) under setting [1] turned out to be 15%.

`CCN(C)S(=O)(=O)Nc1ccc(F)c(C(=O)c2c[nH]c3ncc(-c4ccc(N5CCN(C(=O)CN6CCC(c7ccc(OC8CCC(=O)NC8=O)cc7)CC6)CC5)nc4)cc23)c1F` (stereo not shown) [Example A1, 5-[6-[4-[2-[4-[4-(2,6-Dioxopiperidin-3-yl)oxyphenyl]piperidin-1-yl]acetyl]piperazin-1-yl]pyridin-3-yl]-3-[3-[[ethyl(methyl)sulfamoyl]amino]-2,6-difluorobenzoyl]-1H-pyrrolo[2,3-b]pyridine] showed a DC50 of 17 nM. The Emax under setting [1] stood at 13%.

With `CCN(C)S(=O)(=O)Nc1ccc(F)c(C(=O)c2c[nH]c3ncc(-c4ccc(N5CCN(C(=O)CC6(O)CCN(c7ccc(NC8CCC(=O)NC8=O)cc7F)CC6)CC5)cc4F)cc23)c1F` (stereo not shown) [Example 210, 5-[4-[4-[2-[1-[4-[(2,6-dioxo-3-piperidyl)amino]-2-fluoro-phenyl]-4-hydroxy-4-piperidyl]acetyl]piperazin-1-yl]-2-fluoro-phenyl]-3-[3-[[ethyl(methyl)sulfamoyl]amino]-2,6-difluoro-benzoyl]-1H-pyrrolo[2,3-b]pyridine], half-maximal degradation (DC50) was put at 7.69 nM. Besides, the Emax under setting [1] was 7.6%.

With `CCN(C)S(=O)(=O)Nc1ccc(F)c(C(=O)c2c[nH]c3ncc(-c4ccc(CN5CCN(C(=O)CN6Cc7ccc(NC8CCC(=O)NC8=O)cc7C6)CC5)nc4)cc23)c1F` (stereo not shown) [Example A38, 5-[6-[[4-[2-[5-[(2,6-Dioxopiperidin-3-yl)amino]-1,3-dihydroisoindol-2-yl]acetyl]piperazin-1-yl]methyl]pyridin-3-yl]-3-[3-[[ethyl(methyl)sulfamoyl]amino]-2,6-difluorobenzoyl]-1H-pyrrolo[2,3-b]pyridine], the half-maximal degradation concentration (DC50) is 47 nM. Besides, the Emax under setting [1] came to 20%.

Take `CCN(C)S(=O)(=O)Nc1ccc(F)c(C(=O)c2c[nH]c3ncc(-c4cnc(N5CCN(C(=O)NC6CCN(c7ccc(NC8CCC(=O)NC8=O)cc7F)CC6)CC5)nc4)cc23)c1F` (stereo not shown) [Example 138, N-[1-[4-[(2,6-dioxo-3-piperidyl)amino]-2-fluoro-phenyl]-4-piperidyl]-4-[5-[3-[3-[[ethyl(methyl)sulfamoyl]amino]-2,6-difluoro-benzoyl]-1H-pyrrolo[2,3-b]pyridin-5-yl]pyrimidin-2-yl]piperazine-1-carboxamide]: the half-maximal degradation concentration (DC50) was found to be 10.5 nM. Besides, the Emax under setting [1] turned out to be 7.71%.

In turn, `CC(C)S(=O)(=O)Nc1ccc(F)c(C(=O)c2c[nH]c3ncc(-c4cnc(N5CCN(C(=O)CN6CCC(c7ccc(NC8CCC(=O)NC8=O)cc7F)CC6)CC5)nc4)cc23)c1F` (stereo not shown) [Example 6, N-[3-[5-[2-[4-[2-[4-[4-[(2,6-dioxo-3-piperidyl)amino]-2-fluoro-phenyl]-1-piperidyl]acetyl]piperazin-1-yl]pyrimidin-5-yl]-1H-pyrrolo[2,3-b]pyridine-3-carbonyl]-2,4-difluoro-phenyl]propane-2-sulfonamide] registered a half-maximal degradation concentration (DC50) of 5.59 nM. Moreover, the Emax under setting [1] turned out to be 7.96%.

As for `CCN(C)S(=O)(=O)Nc1ccc(F)c(C(=O)c2c[nH]c3ncc(-c4ccc(N5CC6(CN(C(=O)CN7CCN(c8ccc(NC9CCC(=O)NC9=O)cc8)CC7)C6)C5)nc4)cc23)c1F` (stereo not shown) [Example A77, 5-[6-[2-[2-[4-[4-[(2,6-Dioxopiperidin-3-yl)amino]phenyl]piperazin-1-yl]acetyl]-2,6-diazaspiro[3.3]heptan-6-yl]pyridin-3-yl]-3-[3-[[ethyl(methyl)sulfamoyl]amino]-2,6-difluorobenzoyl]-1H-pyrrolo[2,3-b]pyridine], the 50% degradation concentration (DC50) is 47 nM. Also, the Emax under setting [1] came out at 31%.

Compound `CC(C)S(=O)(=O)Nc1ccc(F)c(C(=O)c2c[nH]c3ncc(-c4ccc(N5CCN(C(=O)CN6CCC(c7ccc(N8CCC(=O)NC8=O)cc7)CC6)CC5)nc4)cc23)c1F` [Example A108, N-[3-[5-[6-[4-[2-[4-[4-(2,4-Dioxo-1,3-diazinan-1-yl)phenyl]piperidin-1-yl]acetyl]piperazin-1-yl]pyridin-3-yl]-1H-pyrrolo[2,3-b]pyridine-3-carbonyl]-2,4-difluorophenyl]propane-2-sulfonamide] returned a 50% degradation concentration (DC50) of 14 nM. Further, the Emax under setting [1] stood at 8%.

On to `CCN(C)S(=O)(=O)Nc1ccc(F)c(C(=O)c2c[nH]c3ncc(-c4ccc(N5CCC(NCC(=O)N6CCC(c7ccc(NC8CCC(=O)NC8=O)cn7)CC6)CC5)cc4)cc23)c1F` (stereo not shown) [Example A96, 5-[4-[4-[[2-[4-[5-[(2,6-Dioxopiperidin-3-yl)amino]pyridin-2-yl]piperidin-1-yl]-2-oxoethyl]amino]piperidin-1-yl]phenyl]-3-[3-[[ethyl(methyl)sulfamoyl]amino]-2,6-difluorobenzoyl]-1H-pyrrolo[2,3-b]pyridine; hydrochloride], for which the DC50 amounted to 18 nM. Further, the maximum response (Emax) under setting [1] worked out at 9%.

As to `CC(C)S(=O)(=O)Nc1ccc(F)c(C(=O)c2c[nH]c3ncc(-c4ccc(N5CCN(C(=O)CN6CCC(c7ccc(NC8CCC(=O)NC8=O)cc7F)CC6)CC5)nc4)cc23)c1F` (stereo not shown) [Example 12, N-[3-[5-[6-[4-[2-[4-[4-[(2,6-dioxo-3-piperidyl)amino]-2-fluoro-phenyl]-1-piperidyl]acetyl]piperazin-1-yl]-3-pyridyl]-1H-pyrrolo[2,3-b]pyridine-3-carbonyl]-2,4-difluoro-phenyl]propane-2-sulfonamide], the DC50 came out at 9.73 nM. In addition, the maximal effect (Emax) under setting [1] came to 8.03%.

Regarding `CCN(C)S(=O)(=O)Nc1ccc(F)c(C(=O)c2c[nH]c3ncc(-c4cnc(N5CCN(C(=O)CN6CCC(c7ccc(NC8CCC(=O)NC8=O)cc7)CC6)CC5)nc4)c(F)c23)c1F` (stereo not shown) [Example 66, 5-[2-[4-[2-[4-[4-[(2,6-dioxo-3-piperidyl)amino]phenyl]-1-piperidyl]acetyl]piperazin-1-yl]pyrimidin-5-yl]-3-[3-[[ethyl(methyl)sulfamoyl]amino]-2,6-difluoro-benzoyl]-4-fluoro-1H-pyrrolo[2,3-b]pyridine], it took 3.06 nM to reach half-maximal degradation (DC50). The Emax under setting [1] is 8.1%.

The values are drawn from patent US12559492B2, “BRAF degraders” (C4 Therapeutics, Inc., priority 2020, dated 2026).
